Data published in US20020023385A1, “Method of controlling seed disease” (priority 2000, published 2002).

The substances below were run on Xanthomonas campestris p.v. campestris (assay: Cross-streak culture screening for antagonistic bacteria). Settings: cross application on potato dextrose-broth-agar medium, 25° C., 3 days.
Assay type: cell-based
Method: Filamentous fungi and bacteria (hereinafter referred to as “candidate microorganisms” in general) isolated from a seed or a soil is streaked on a same medium as that of the pathogenic microorganisms of the seed borne disease which is a target to be controlled in a dual or cross manner and are cultured for several days under a temperature suitable for growing the pathogenic microorganisms (dual culture). After the microorganism have been cultured, growth thereof are observed; then, the one which apparently controlled the growth of the pathogenic microorganisms by the candidate microorganism is selected as the effective microorganism which has an antagonistic property (Laboratory Guide for Plant Pathology and Microbiology, 459-474, Satoshi Wakimoto et al., Soft Science Inc., 1993).
Each type of the above-described seeds was shaken in a physiological saline solution (a distilled water solution containing 0.85 weight % of sodium chloride) having 2.5 times the weight of the seeds for 2.5 hours. Then, the solution was evenly streaked on an albumin-agar culture medium. In six days after streaking, a colony which has emerged was isolated and, then, streaked on a potato dextrose-broth-agar culture medium (available from Difco Laborarories, Mich., U.S.A.) in a cross application manner against Xanthomonas campestris p.v. campestris to be cultured at 25° C. […] As a result, three bacterial strains under names of TK-12, TK-151, and TK-185 were obtained. Taxonomic properties of these three strains are shown below in Table 1.

**Q.** With Pantoea sp. TK-185 as the substance, how does the “control of growth of Xanthomonas campestris p.v. campestris” value read?
**A.** The value was “controls growth of such Xanthomonas campestris p.v. campestris”.

**Q.** How did the “control of growth of Xanthomonas campestris p.v. campestris” value turn out when Pantoea sp. TK-12 was run?
**A.** Its value is “controls growth of such Xanthomonas campestris p.v. campestris”.

**Q.** For Leclercia adecarboxylata TK-151, which “control of growth of Xanthomonas campestris p.v. campestris” value is on record?
**A.** Its value is “controls growth of such Xanthomonas campestris p.v. campestris”.
